Reference: PMC10969560, “Eye Drop with Fas-Blocking Peptide Attenuates Age-Related Macular Degeneration” (Cells, 2024)
Each block holds one compound with its values, some of them ahead of it.

How the values were obtained:
[1] = system: Fas-expressing Jurkat cells; assay: Size-dependent FBP binding test in Jurkat cells (flow cytometry); conditions: N=3, Figure S4A
Source text: (§1) Figure S4. Size- dependent FBP binding test in Jurkat cells. (A) Size- dependent FBP flow cytometry analysis of binding in Jurkat cells. (B) Size-dependent FBP flow cytometry analysis of apoptosis in Jurkat cells. The data are pres en ted as the mean ± SD (N=3 per group). *P<0.05, ***P<0.001, and ns indicates not

Jurkat cells = assay: Flow cytometry analysis of Fas/FasL-mediated apoptosis in Jurkat cells; type: cell-based; conditions: N=3, Figure S4B
Source text: as §1

[2] = system: NaIO3-induced retinal degeneration mice; conditions: mouse, in vivo
Experimental: Retinal degeneration was induced by intravenous injection of NaIO3 (30 mg/kg) in 6-week-old male BALB/c mice (N = 3 per group), weighing 18–22 g (Orient Bio, Seoul, Korea). The eye drop administration group received peptides dissolved in PBS at dosages of 10 mg/mL (50 μg/5 μL) per ocular instillation. For intravitreal administration, peptide solutions dissolved in PBS were administered into the vitreous humor at a concentration of 1 mg/mL (1 μg/1 μL) per administration.
The N-terminal of the target peptide was fluorescently tagged using Alexa Fluor™ 647 NHS Ester (Succinimidyl Ester) (Invitrogen, Carlsbad, CA, USA), following the manufacturer’s protocol. Subsequently, free dye molecules were removed through a PD-10 desalting column (GE Healthcare, Milwaukee, WI, USA). Seven days after induction with NaIO3, Alexa647-conjugated peptides were administered via eye drops. Twelve hours after the last administration, organs were harvested for experiments, and Alexa647 signals were detected on whole organs using a FOBI imaging machine ([sequence], Cheongju, Republic of Korea).
For IHC, eyes were harvested and embedded in the Tissue-Tek® OCT Compound (Sakura Finetek Europe BV, Alphen aan den Rijn, The Netherlands) to prepare cryoblocks for cryosectioning. After freezing the eyes in the Tissue-Tek® OCT Compound, the eyes were cryosectioned to a thickness of 10 μm and mounted with ProLong™ Glass Antifade Mountant with NucBlue™ Stain (Invitrogen). The anti-Fas rabbit mAb (#4233S, Cell Signaling Technology, Danvers, MA, USA) was used to capture the Fas receptor, and the Fas antibody was subsequently detected using Goat Anti-Rabbit IgG H&L (Alexa Fluor® 488) (ab150077, Abcam, Cambridge, UK). A ZEISS Axio Scan.Z1 Slide Scanner (Carl Zeiss, Oberkochen, Germany) was employed to detect NucBlue™ stained cell nuclei and the Alexa647-conjugated peptide signals.

[3] = system: NaIO3-induced retinal degeneration mice; assay: H&E histology in NaIO3-induced retinal degeneration mouse model; type: in vivo, BALB/c mice; conditions: NaIO3 30 mg/kg i.v., N=3, Figure 3B
Experimental: (§2) To confirm the therapeutic effect of 6R-FBP, histological evaluation was conducted through hematoxylin and eosin (H&E) staining and the TUNEL assay. The eyes were fixed with 4% paraformaldehyde in PBS at room temperature for 20 min. After fixation, the eyes were sequentially incubated in 10%, 20%, and 30% (w/v) sucrose solution diluted in PBS for 30 min each at room temperature. Subsequently, the eyeballs were sagittally halved with a razor blade and embedded in Tissue-Tek® OCT Compound, and then frozen immediately in a liquid nitrogen chamber. Trimming was minimized to maintain controlled distances and ensure consistency, and sections were sliced at a thickness of 10 μm. Sections from the eye cryoblock were used for H&E staining and the TUNEL assay. The TUNEL assay was conducted according to the manufacturer’s protocol using the TUNEL assay kit (Abcam).

[4] = system: NaIO3-induced retinal degeneration mice; assay: TUNEL assay in NaIO3-induced retinal degeneration mouse model; type: in vivo, BALB/c mice; conditions: N=3, Figure 3C
Experimental: as §2

[5] = system: NaIO3-induced retinal degeneration mice; assay: In vivo real-time PCR of eye posterior hemisphere in NaIO3-induced retinal degeneration mouse model; parameters: species or system BALB/c mice; conditions: N=3, Figure 3D; for expression of Fas receptor, inflammatory cytokines, and macrophages compared to the mock group (qPCR): posterior hemisphere
Source text: The mouse eye posterior hemisphere was dissected using Vannas scissors. Subsequently, total RNA was extracted from the posterior hemisphere of the left eye using the RNAiso kit (Takara). RNA was reverse-transcribed with the High-Capacity cDNA Reverse Transcription Kit (Applied Biosystems, Waltham, MA, USA) and quantified using PowerUp™ SYBR™ Green Master Mix (Thermo Fisher Scientific, Waltham, MA, USA) on an ABI 7500 Fast Real-Time PCR system (Applied Biosystems, Waltham, MA, USA). Relative expression was determined using the ΔΔCt method, normalized against GAPDH mRNA levels. The primer sequences used are depicted in Table 2.

[6] = system: NaIO3-induced ARPE-19 cells; assay: CCK-8 cell viability in NaIO3-induced ARPE-19 cells; type: cell-based, human; conditions: NaIO3 10 mM, 24 h, FBP 100, 300, 500, 700, 900 μM, three independent experiments, Figure S2
Experimental: All experiments were performed using cells within specified passages.
Figure S2. Concentration -dependent cel l viability in NaI O3-indu ced ARPE-19 cells. Cell viability under concentration-dependent conditions wa s evaluated in NaIO3-induced ARPE- 19 cells. The data are presented as the mean ± SD from three independent experiments. ***P<0.001, and ns indicates not significa nt.

Fas = assay: RT-PCR of Fas expression in NaIO3-treated ARPE-19 cells; type: cell-based, human; conditions: ARPE-19, NaIO3 10 mM + peptide 700 μM, 24 h; N=3; Figure 1A
Experimental: (§3) After 24 h of treatment with NaIO3 (10 mM) and the FBP peptide (700 μM), the cells were harvested for analysis. Total RNA from the ARPE-19 cells was extracted using the RNAiso kit (Takara, Kyoto, Japan). Total RNA was reverse-transcribed into cDNA using the High-Capacity cDNA Reverse Transcription Kit (Applied Biosystems, Waltham, MA, USA). The quantification of gene expression was performed using PowerUp™ SYBR™ Green Master Mix (Thermo Fisher Scientific, Waltham, MA, USA) on an ABI 7500 Fast Real-Time PCR system (Applied Biosystems, Waltham, MA, USA). The sequences of primer pairs used for real-time PCR are depicted in Table 2.

ARPE-19 cells [7] = assay: Annexin V/PI flow cytometry apoptosis analysis in NaIO3-treated ARPE-19 cells; type: cell-based, human; conditions: ARPE-19, NaIO3 10 mM + peptide 700 μM, 24 h; N=3; Figure 1B
Experimental: The efficacy of FBP on the inhibition of ARPE-19 cell apoptosis was assessed through annexin V/propidium iodide (PI) staining, followed by flow cytometry analysis. […] After 24 h of treatment with NaIO3 (10 mM) and the FBP peptide (700 μM), the cells were harvested and stained using the Dead Cell Apoptosis Kits with annexin V for Flow Cytometry (Invitrogen, Carlsbad, CA, USA), following the manufacturer’s protocol. The stained cells were collected and analyzed using a BD FACSCalibur™ system (Becton Dickinson, Franklin Lakes, NJ, USA).

cleaved caspase-3 and 8 = assay: Western blot of apoptosis-related proteins in NaIO3-treated ARPE-19 cells; type: cell-based, human; conditions: ARPE-19, NaIO3-treated; Figure 1C
Experimental: Total protein samples were extracted from ARPE-19 cells using ice-cold RIPA buffer containing a protease inhibitor cocktail. A 4× sample buffer containing Tris-(2-Carboxyethyl)phosphine (Invitrogen, Carlsbad, CA, USA) was prepared by mixing 950 µL of 4× Laemmli sample buffer (GenDEPOT) with 50 µL of Tris-(2-Carboxyethyl)phosphine (Invitrogen). Protein samples (15 μg) were diluted in the sample buffer and heated at 95 °C for 5 min. The samples were then loaded onto a 12% SDS-PAGE gel and transferred onto a PVDF transfer membrane. The blots were probed with rabbit anti-cleaved caspase-3 (1:1000, Abcam, Cambridge, UK, ab52293), anti-cleaved caspase-8 (1:1000, Abcam, ab25901) and rabbit polyclonal anti-Fas (1:1000, Abcam, ab82419). Secondary polyclonal antibodies were probed with rabbit IgG coupled to HRP (1:2000, Abcam, ab97051). Finally, the blots were developed using ECL Western blotting substrate (Promega, Madison, WI, USA).

NF-κB, ERK, and JNK = assay: RT-PCR of cytokine and signaling pathway-related genes in NaIO3-treated ARPE-19 cells; type: cell-based, human; conditions: ARPE-19, NaIO3 10 mM + FBP 700 μM, 24 h; Figure 1D
Experimental: as §3

[8] = system: NaIO3-induced retinal degeneration rabbits; assay: Fundus imaging of RPE degenerated area in NaIO3-induced retinal degeneration rabbit model; type: in vivo, chinchilla rabbits; conditions: for RPE degeneration compared with mock treatment (fundus imaging): NaIO3 60 mg/kg i.v., N=4, Figure 4B; for level of RPE degeneration on day 14 compared with mock group (fundus imaging): day 14, N=4, Figure 4B
Experimental: (§4) The efficacy of the treatment was evaluated through an experiment conducted by KNOTUS, a contract research organization. In brief, retinal degeneration was induced by intravenous injection of NaIO3 (60 mg/kg) in 20 chinchilla rabbits, weighing 2 kg.
(§5) The eye drop administration group received dosages of 5 mg/mL (250 μg/50 μL) per ocular instillation. For intravitreal administration, peptide solutions (5 mg/mL) were administered in increments of 40 μL per administration. A pipette was used to administer the test substance onto the central cornea of the right eye for each experimental group.
(§6) Anesthetized animals were administered the test substance via subconjunctival injection into the right eye using a 31-gauge syringe needle attached to a syringe. In the case of eye drop administration, the peptides and PBS were administered twice daily for 2 weeks, for a total of 28 administrations. For intravitreal administration, a single dose of the peptide was administered the day after the NaIO3 injection.
Before the administration of NaIO3 (Day 0) and upon concluding the experiment (Day 14), the right eyes of the rabbits were treated with a mydriatic agent (1% midriacyl eye drops). Subsequently, the rabbits were anesthetized with a mixture of Zoletil®50 (Virbac, Carros, France) and Rompun^TM (Bayer AG, Leverkusen, Germany) through intravenous injection (marginal ear vein) at a dosage of 0.1 mL/kg. Fundus imaging was conducted using a fundus camera (TRC-50IX, TOPCON, Tokyo, Japan). The retinal images were analyzed using Image J software version 1.54d (NIH, Bethesda, MD, USA) to determine the area of degeneration in the RPE, with the RPE injury area being manually selected. The total area of the retina, excluding the optic nerve region, was defined as the total area. The proportion of degenerated area was calculated as a percentage using Equation (1). Degenerated area (%) = Degenerated area/Total area(1)

[9] = system: NaIO3-induced retinal degeneration rabbits; assay: H&E staining, ONL to total retinal thickness, in NaIO3-induced retinal degeneration rabbits; type: in vivo, chinchilla rabbits; conditions: rabbit, Day 14, N=4, Figure 4D
Experimental: as §4, §5, §6
On the concluding day of the experiment (Day 14), the animals were anesthetized using the previously described mixture of Zoletil®50 and Rompun^TM, after which they were sacrificed. NaIO3-induced retinal degeneration eyes were then extracted, and the central cornea was punctured using an injection needle. Subsequently, the specimens were fixed in a 10% neutral buffered formalin solution. For histopathological examination, the fixed tissues were subjected to processes such as fixation, dehydration, paraffin embedding, and sectioning. H&E staining was then performed, and the proportion (%) of the thickness of the outer nuclear layer (ONL) to the overall retinal thickness was calculated using an Olympus BX-53 optical microscope (Olympus, Tokyo, Japan). Two slides were prepared per eyeball relative to the optic nerve. Measurements were taken at three points on each slide, amounting to a total of six values, which were averaged.

Fas/FasL = conditions: neuronal cells; previous study; cited from earlier work
ARPE-19 cells [10] = system: ARPE-19 cells
Experimental: To confirm the cytotoxicity of CPP-conjugated FBP (4R-FBP, 5R-FBP, 6R-FBP, 9R-FBP) on ARPE-19 cells, the cells were plated in a 12-well plate at a density of 2 × 10^5/mL. After 24 h of treatment with various peptides (4R-FBP, 5R-FBP, 6R-FBP, 9R-FBP, and FBP), the CCK-8 assay was performed as per the manufacturer’s protocol.
Peptide toxicity was assessed
using CCK-8 assay in ARPE-19 cell. The data are presented as the mean ± SD (N=3 per group). ns

[11] = eye drop application, peptides 10 mg/mL (50 μg/5 μL)
[12] = eye drops 5 mg/mL (250 μg/50 μL) twice daily for 14 days

size-dependent retinal delivery (confocal, Alexa647 signal) [2]: successfully delivered
Compound: DEHF [4-mer]
binding to Fas-expressing Jurkat cells [1]: demonstrated binding | inhibition of Fas/FasL-mediated apoptosis (Jurkat cells): could not inhibit

Compound: C[C@@H]1C[C@H]2[C@@H]3CCC4=CC(=O)C=C[C@]4(C)[C@@]3(F)[C@@H](O)C[C@]2(C)[C@@]1(O)C(=O)CO [Dexa, dexamethasone, reference compound]
therapeutic effect on integrity of the retinal layer (H&E staining) [3, 11]: therapeutic effects | apoptosis levels in retina (TUNEL) ([4]; eye drop application): lower apoptosis levels | levels of M2 macrophages compared to the mock group (qPCR, CD206) ([5]; eye drop application): increased levels | expression of Fas receptor, inflammatory cytokines, and macrophages compared to the mock group (qPCR) ([5]; eye drop application): decreased expression

Compound: YCDEHFCY [FBP]
FBP concentration at which viability of NaIO3-induced ARPE-19 cells was maximum [6]: exceeding 700 μM | expression of Fas (RT-PCR) (Fas): reduced | apoptosis (annexin V/PI staining) compared with mock group (ARPE-19 cells [7]): statistically significant decrease in apoptosis | levels of cleaved caspase-3 and 8 (Western blot) (cleaved caspase-3 and 8): significant decrease | levels of NF-κB, ERK, and JNK (RT-PCR) (NF-κB, ERK, and JNK): decreased levels | therapeutic effect on integrity of the retinal layer (H&E staining) [3, 11]: no therapeutic effect | therapeutic effect on integrity of the retinal layer (H&E staining) ([3]; intravitreal injection 1 mg/mL (1 μg/1 μL)): therapeutic effects | apoptosis levels in retina (TUNEL) ([4]; eye drop application): higher apoptosis levels | apoptosis levels in retina (TUNEL) ([4]; intravitreal injection): lower apoptosis levels | levels of M2 macrophages compared to the mock group (qPCR, CD206) ([5]; intravitreal injection): increased levels | expression of Fas receptor, inflammatory cytokines, and macrophages compared to the mock group (qPCR) ([5]; intravitreal injection): decreased expression | RPE degeneration compared with mock treatment (fundus imaging) [8, 12]: significant reduction in RPE degeneration | RPE degeneration compared with mock treatment (fundus imaging) ([8]; single intravitreal injection 5 mg/mL, 40 μL): significant reduction in RPE degeneration | level of RPE degeneration on day 14 compared with mock group (fundus imaging) ([8]; eye drops twice daily for 14 days): significantly lower | level of RPE degeneration on day 14 compared with mock group (fundus imaging) ([8]; single intravitreal injection): significantly lower | proportion of thickness of ONL to total retinal thickness compared with mock group (H&E) ([9]; eye drops twice daily): maintenance of the ONL | proportion of thickness of ONL to total retinal thickness compared with mock group (H&E) ([9]; single intravitreal injection): maintenance of the ONL | transfer to other organs (fluorescence signal vs normal group) [2]: not transferred to any other organ but the eyes | inhibition of Fas/FasL ligation (Fas/FasL): effective inhibition of Fas/FasL ligation

Compound: CDEHF [5-mer, 5-mer truncated FBP, CDEHF]
binding to Fas-expressing Jurkat cells [1]: demonstrated binding | inhibition of Fas/FasL-mediated apoptosis (Jurkat cells): could not inhibit

Compound: GGGRRGGG [Ctrl, nonspecific control peptide, GGGRRGGG, reference compound]
expression of Fas (RT-PCR) (Fas): increased | apoptosis (annexin V/PI staining) compared with mock group (ARPE-19 cells [7]): no protective effects against apoptosis | levels of cleaved caspase-3 and 8 (Western blot) (cleaved caspase-3 and 8): upregulation | therapeutic effect on integrity of the retinal layer (H&E staining) [3, 11]: no therapeutic effect | apoptosis levels in retina (TUNEL) ([4]; eye drop application): higher apoptosis levels

size-dependent retinal delivery (confocal, Alexa647 signal) [2]: robust fluorescence signals
Compound: RRRRRRGGGGYCDEHFCY [6R-FBP]
therapeutic effect on integrity of the retinal layer (H&E staining) [3, 11]: therapeutic effects | apoptosis levels in retina (TUNEL) ([4]; eye drop application): lower apoptosis levels | levels of M2 macrophages compared to the mock group (qPCR, CD206) ([5]; eye drop application): increased levels | expression of Fas receptor, inflammatory cytokines, and macrophages compared to the mock group (qPCR) ([5]; eye drop application): decreased expression | RPE degeneration compared with mock treatment (fundus imaging) [8, 12]: significant reduction in RPE degeneration | proportion of thickness of ONL to total retinal thickness compared with mock group (H&E) ([9]; eye drops twice daily): maintenance of the ONL | toxicity of CPP-conjugated FBP in retinal cells (ARPE-19 cells [10]): lower toxicity
